{"source": "paper PMC11943723", "about": "“Synthesis and Biological Activity of Glycosyl Thiazolyl Disulfides Based on Thiacarpine, an Analogue of the Cytotoxic Alkaloid Polycarpine from the Ascidian Polycarpa aurata” (Marine Drugs, 2025)", "key": {"LLC": {"system": "LLC", "details": "injected intraperitoneally; cited from earlier work"}, "[1]": {"system": "MDA-MB-231 (triple-negative breast cancer)", "assay": "MTT cell viability assay, MDA-MB-231", "type": "cell-based, human", "details": "24 h incubation, read-out: Cytotoxicity EC50, MDA-MB-231 (TNBC)", "source_text": "(§1) Human erythrocytes were purchased from the blood transfusion station Vladivostok. Human breast cancer cell lines MCF-7^HTB−22, and MDA-MB-231^CRM-HTB−26, liver hepatocellular carcinoma Hep G2^HB−8065, prostate adenocarcinoma PC-3^CRL−1435, cervical adenocarcinoma HeLa^CRM-CCL−2, and normal bronchial epithelial cells BEAS-2B ^CRL−3588 were received from ATCC (Manassas, VA, USA).\n(§2) DMEM medium (Biolot, Russia) with 1% penicillin/streptomycin and 10% fetal bovine serum (FBS) (Biolot, Russia) was used for cultivation of Hep G2, PC-3, HeLa, and Beas-2b. MEM medium (Biolot, Russia) with 1% penicillin/streptomycin sulfate (Biolot, Russia) and FBS (Biolot, Russia) to a final concentration of 10% for MCF-7 and MDA-MB-231 cells.\n(§3) The effect of the studied compounds on the viability of human cancer and normal cells was determined using the MTT (3-[4,5-dimethylthiazol-2-yl]-2,5 diphenyl tetrazolium bromide) assay. Briefly, 6 × 10^3 cells per well were seeded into 96-well plates and incubated for 24 h for adhesion, followed by incubation for 24 h with different concentrations of the substances. After incubation, the medium containing the test substances was replaced with 100 µL of fresh medium. Then, 10 μL of MTT (Sigma-Aldrich, Madison, WI, USA) reagent (5 mg/mL MTT in PBS) was added into the cells and the plates for additional 4 h. Thereafter, 100 µL of SDS-HCl solution (1 g SDS/10 mL dH2O/17 µL 6N HCl) was added to each well and incubated for 18 h. The absorbance of the converted formazan dye was measured using a Multiskan FC microplate photometer (Thermo Scientific, Waltham, MA, USA) at a wavelength of 570 nm. All experiments were performed in triplicate. Cytotoxic activity was expressed as a percentage of the cell viability."}, "[2]": {"system": "Staphylococcus aureus (ATCC 21027)", "assay": "Antimicrobial activity, inhibition of microbial growth (optical density)", "type": "cell-based", "details": "Staphylococcus aureus, ATCC21027; 18 h, OD 620 nm; read-out: Inhibition of Microbial Growth MIC50, S. aureus", "protocol": "(§4) The antimicrobial activity of the compounds was determined against Gram-positive bacteria Staphylococcus aureus (ATCC 21027), Gram-negative bacteria Escherichia coli (VKPM B-7935), and yeast-like fungi Candida albicans (KMM 455) (all test strains were obtained from the Collection of Marine Microorganisms KMM PIBOC FEB RAS) in liquid nutrient media. Test cultures of S. aureus, E. coli, and C. albicans were grown in Petri dishes on a solid nutrient medium (Mueller–Hinton broth with the addition of agar—16.0 g/L) at 37 °C for 24 h. The antimicrobial activity of the compounds was determined by the change in optical density and expressed as the percentage of bacterial inhibition at different concentrations of substances added to the well of the microorganism suspension, compared to the control. The compounds were dissolved in dimethyl sulfoxide (DMSO) at a concentration of 10 mM and stored at −20 °C. Before the experiment, the solution of substances in DMSO was diluted with PBS at a concentration of 0.5–100.0 µM and added to the wells so that the concentration of DMSO in the culture medium was less than 1%. Antimicrobial activity was determined in 96-well microplates in a liquid Mueller–Hinton nutrient medium. For S. aureus, E. coli, and C. albicans, a bacterial suspension of 10^6 CFU in 1 mL of the media was used, 90 μL was added to each well of the microplates and then incubated in a thermostatted shaker at 37 °C for 18 h. Inhibition of microorganism growth was assessed by measuring the optical density at 620 nm using a microplate reader (Thermo Fisher Scientific, Waltham, MA, USA) after preliminary shaking of the plates for 10 min. All experiments were performed in triplicate. Gentamicin (S. aureus and E. coli) and nitrofungin (C. albicans) were used as positive controls, and 1% DMSO in PBS was used as a negative control."}, "[3]": {"system": "Escherichia coli (VKPM B-7935)", "assay": "Antimicrobial activity, inhibition of microbial growth (optical density)", "type": "cell-based", "details": "Escherichia coli; 18 h, OD 620 nm; read-out: Inhibition of Microbial Growth MIC50, E. coli", "protocol": "as §4"}, "[4]": {"system": "Candida albicans (KMM 455)", "assay": "Antimicrobial activity, inhibition of microbial growth (optical density)", "type": "cell-based", "details": "Candida albicans, KMM455; 18 h, OD 620 nm; read-out: Inhibition of Microbial Growth MIC50, C. albicans", "protocol": "as §4"}, "HeLa (cervical cancer)": {"system": "HeLa (cervical cancer)", "assay": "MTT cell viability assay, HeLa", "type": "cell-based, human", "details": "24 h incubation, read-out: Cytotoxicity EC50, HeLa", "source_text": "as §1, §2, §3"}, "[5]": {"system": "Hep G2 (hepatocellular carcinoma)", "assay": "MTT cell viability assay, Hep G2", "type": "cell-based", "details": "Homo sapiens, HepG2, 24 h incubation, read-out: Cytotoxicity EC50, Hep G2", "source_text": "as §1, §2, §3"}, "[6]": {"assay": "MTT cell viability assay, BEAS-2B normal cells", "type": "cell-based", "details": "human, BEAS-2B normal bronchial epithelial cells, 24 h incubation, read-out: Cytotoxicity EC50, BEAS 2B", "source_text": "as §1, §2, §3"}, "melanoma B-16": {"system": "melanoma B-16", "details": "injected intraperitoneally; cited from earlier work"}, "HeLa cells": {"system": "HeLa cells", "assay": "Wound scratch migration assay", "type": "cell-based", "details": "Homo sapiens, 24 h, read-out: Migration inhibition effect", "protocol": "To analyze the effect of the tested compounds on the migration of HeLa tumor cells, special migration inserts (Culture-insert 2 Well 24, ibiTreat, Martinsried, Germany) were used, which left a gap of 500 ± 50 μm (according to the manufacturer’s data) between the cells attached to the plate. HeLa cells at a concentration of 5 × 10^5 were added to each well of the migration insert for 24 h, the insert was removed, and the cells were washed twice with PBS to remove cell debris and floating cells and loaded with the fluorescent probe CFDA-SE (Lumiprobe, Moscow, Russia) at a concentration of 10 µM for 5 min. The cells were treated with different concentrations of the studied compounds for 0 and 24 h. Cells treated with culture medium alone were used as vehicle controls. Cell migration in the wound area was observed under a fluorescence microscope (MIB-2-FL, LOMO, St. Petersburg, Russia) with a 10× objective."}, "[7]": {"system": "Staphylococcus aureus (ATCC 21027)", "assay": "Inhibition of biofilm formation (MTT)", "type": "cell-based", "details": "24 h", "protocol": "(§5) Biofilm formation was performed according to the method described by Walencka et al., with minor modifications. The compounds were dissolved in dimethyl sulfoxide (DMSO) at a concentration of 10 mM and stored at −20 °C. Before the experiment, the solution of substances in DMSO was diluted with PBS at a concentration of 0.5–100.0 µM and added to the wells so that the concentration of DMSO in the culture medium was less than 1%. Biofilm formation was assessed in 96-well microplates in a liquid Mueller–Hinton nutrient medium. For S. aureus, E. coli, and C. albicans, a bacterial suspension of 10^6 CFU in 1 mL of medium was used, 90 μL was added to each well of the microplates and then incubated in a thermostatted shaker at 37 °C for 24 h. After incubation, the suspension of planktonic microorganisms was removed from the plate and washed with PBS. Next, 100 μL of PBS and 10 μL of MTT (3-(4,5-dimethylthiazol-2-yl)-2,5-diphenyltetrazolium bromide, MTT reagent, Sigma) stock solution (5 mg/mL) were added to the wells and incubated for 3 h at 37 °C. After incubation, all the solution was removed from the wells, 100 μL of DMSO was added, and the plate was shaken for 10 min until all formazan crystals had dissolved. The absorption was measured using a plate reader (Thermo Fisher Scientific, Waltham, MA, USA) at a wavelength of 570 nm. The activity of the substances was assessed by the change in optical density compared with that of the control. All experiments were performed in triplicate. Gentamicin (S. aureus and E. coli) and nitrofungin (C. albicans) were used as positive controls, and 1% DMSO in PBS was used as a negative control."}, "[8]": {"system": "Candida albicans (KMM 455)", "assay": "Inhibition of biofilm formation (MTT)", "type": "cell-based", "details": "24 h", "protocol": "as §5"}, "Human erythrocytes": {"system": "Human erythrocytes", "assay": "Hemolytic activity (destruction of erythrocyte membranes)", "type": "cell-based", "source_text": "as §1"}, "[9]": {"details": "in vivo experiments; cited from earlier work"}}, "note": "Like-named read-outs stand apart in the source and are kept apart here.", "data": [{"smiles": "COc1ccc(-c2nc(N)sc2SSc2sc(N)nc2-c2ccc(OC)cc2)cc1", "note": "[Compound 1a]", "values": [{"measurement": "Inhibition of development of solid tumor LLC", "setting": "LLC", "value": "effectively inhibited"}, {"measurement": "EC50", "setting": "[1]; Homo sapiens, MDA-MB-231, 24 h", "value": 21.4, "unit": "µM"}, {"measurement": "MIC50", "setting": "[2]", "value": "10.3 ± 1.1", "unit": "µM"}, {"measurement": "MIC50", "setting": "[3]", "value": "> 50", "unit": "µM"}, {"measurement": "MIC50", "setting": "[4]", "value": "38.2 ± 3.2", "unit": "µM"}, {"measurement": "EC50", "setting": "HeLa (cervical cancer); Homo sapiens, HeLa, 24 h", "value": "> 25", "unit": "µM"}, {"measurement": "EC50", "setting": "[5]", "value": "> 25", "unit": "µM"}, {"measurement": "EC50 at 24 h", "setting": "[6]", "value": "> 25", "unit": "µM"}, {"measurement": "Inhibition of development of solid tumor melanoma B-16", "setting": "melanoma B-16", "value": "effectively inhibited"}]}, {"smiles": "CC(=O)OC[C@H]1O[C@@H](SSc2sc(N)nc2-c2ccc(C)cc2)[C@H](OC(C)=O)[C@@H](OC(C)=O)[C@@H]1OC(C)=O", "note": "[Compound 4e, 5-[(2,3,4,6-Tetra-O-acetyl-β-D-glucopyranosyl)disulfanyl]-2-amino-4-(p-tolyl)thiazole]", "values": [{"measurement": "EC50", "setting": "[1]", "value": 15, "unit": "µM"}, {"measurement": "EC50", "setting": "[1]; Homo sapiens, MDA-MB-231, 24 h", "value": 15, "unit": "µM"}, {"measurement": "MIC50", "setting": "[2]", "value": "> 50", "unit": "µM"}, {"measurement": "MIC50", "setting": "[3]", "value": "> 50", "unit": "µM"}, {"measurement": "MIC50", "setting": "[4]", "value": "17.7 ± 0.3", "unit": "µM"}, {"measurement": "EC50", "setting": "HeLa (cervical cancer)", "value": 18.5, "unit": "µM"}, {"measurement": "EC50", "setting": "HeLa (cervical cancer); Homo sapiens, HeLa, 24 h", "value": 18.5, "unit": "µM"}, {"measurement": "EC50", "setting": "[5]", "value": "> 25", "unit": "µM"}, {"measurement": "EC50 at 24 h", "setting": "[6]", "value": "> 25", "unit": "µM"}, {"measurement": "inhibition at 10 µM", "setting": "HeLa cells", "value": "~43", "unit": "%"}]}, {"smiles": "CC(=O)O[C@@H]1[C@@H](OC(C)=O)[C@H](SSc2sc(N)nc2-c2ccc(Br)cc2)OC[C@H]1OC(C)=O", "note": "[Compound 4h, 5-[(2,3,4-Tri-O-acetyl-β-D-xylopyranosyl)disulfanyl]-2-amino-4-(4-bromophenyl)thiazole]", "values": [{"measurement": "EC50", "setting": "[1]; Homo sapiens, MDA-MB-231, 24 h", "value": 21.1, "unit": "µM"}, {"measurement": "MIC50", "setting": "[2]", "value": "2.4 ± 0.2", "unit": "µM"}, {"measurement": "MIC50", "setting": "[3]", "value": "5.8 ± 0.4", "unit": "µM"}, {"measurement": "MIC50", "setting": "[4]", "value": "4.3 ± 0.5", "unit": "µM"}, {"measurement": "EC50", "setting": "HeLa (cervical cancer); Homo sapiens, HeLa, 24 h", "value": 21.3, "unit": "µM"}, {"measurement": "EC50", "setting": "[5]", "value": 24.6, "unit": "µM"}, {"measurement": "EC50 at 24 h", "setting": "[6]", "value": 19.9, "unit": "µM"}, {"measurement": "Inhibition of Biofilm Formation MIC50, S. aureus", "setting": "[7]", "value": 6.32, "unit": "µM"}, {"measurement": "Inhibition of Biofilm Formation MIC50, C. albicans", "setting": "[8]", "value": 7.11, "unit": "µM"}, {"measurement": "Hemolytic activity, erythrocytes", "setting": "Human erythrocytes", "value": "> 25", "unit": "µM"}, {"measurement": "inhibition at 10 µM", "setting": "HeLa cells", "value": "~43", "unit": "%"}]}, {"smiles": "COc1ccc(-c2nc(N)n(C)c2SSc2c(-c3ccc(OC)cc3)nc(N)n2C)cc1", "note": "[polycarpine]", "values": [{"measurement": "Acute toxicity in vivo", "setting": "[9]", "value": "acute toxicity"}]}]}
